For data set [1] the following is noted: Hasegawa et al., 1995; cited from earlier work.
A further data set relates to B16-BL6 melanoma cells. Particulars: B16-BL6 melanoma cells (Wakabayashi et al., 1998); cited from earlier work.
In data set [2] the test system is cultured bovine adrenal chromaffin cells. Particulars: cultured bovine adrenal chromaffin cells (Kudo et al., 1998); cited from earlier work.
For data set [3] the following is noted: Odani et al., 1983; cited from earlier work.
For data set [4] the following is noted: Karikura et al., 1991; cited from earlier work.
The target in data set [5] is T1, nuclear glucocorticoid receptor (Homo sapiens, UniProt P04150).
T1 sequence (P04150 1-777): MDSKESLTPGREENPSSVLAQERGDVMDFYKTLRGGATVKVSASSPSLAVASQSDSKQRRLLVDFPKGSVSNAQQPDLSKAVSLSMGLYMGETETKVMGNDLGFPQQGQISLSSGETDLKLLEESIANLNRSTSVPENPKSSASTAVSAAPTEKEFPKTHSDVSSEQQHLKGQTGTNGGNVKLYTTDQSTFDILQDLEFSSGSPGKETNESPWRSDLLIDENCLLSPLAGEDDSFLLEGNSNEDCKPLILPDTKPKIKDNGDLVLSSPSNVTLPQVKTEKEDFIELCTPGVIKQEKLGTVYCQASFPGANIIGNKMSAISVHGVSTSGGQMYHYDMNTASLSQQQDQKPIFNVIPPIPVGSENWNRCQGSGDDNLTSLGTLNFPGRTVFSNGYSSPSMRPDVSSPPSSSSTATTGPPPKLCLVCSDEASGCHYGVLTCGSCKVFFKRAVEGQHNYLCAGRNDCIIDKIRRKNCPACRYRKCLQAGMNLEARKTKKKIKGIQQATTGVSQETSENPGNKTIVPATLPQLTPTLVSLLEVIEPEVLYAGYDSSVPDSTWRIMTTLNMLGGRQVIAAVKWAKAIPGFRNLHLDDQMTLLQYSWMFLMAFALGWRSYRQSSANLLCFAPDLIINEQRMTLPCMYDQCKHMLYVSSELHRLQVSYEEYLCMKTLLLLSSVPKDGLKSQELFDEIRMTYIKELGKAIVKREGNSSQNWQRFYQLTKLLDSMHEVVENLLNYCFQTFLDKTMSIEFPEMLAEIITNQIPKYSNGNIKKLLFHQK
The following applies: Lee et al., 1997; Chung et al., 1998; cited from earlier work.

Data set [6] relates to streptozotocin-induced diabetic rats. Particulars: streptozotocin-induced diabetic rats (Yokozawa et al., 1985); cited from earlier work.
Data set [7] deals with hepatic tissue of streptozotocin-induced diabetic rats. Particulars: streptozotocin-induced diabetic rats (Yokozawa et al., 1991); cited from earlier work.
The next data set has as its system albumin mRNA. Particulars: streptozotocin-induced diabetic rats (Yokozawa et al., 1996); cited from earlier work.
Data set [8] can be described thus: Body weight of ob/ob mice. The data set is classed as in vivo. As to the method: The average body weight of adult ob/ob or db/db mice is almost twice that of their lean littermates. Animals were treated with Panax ginseng berry extract, Panax quinquefolius berry extract, ginsenoside Re, or a polysaccharide fraction from Panax quinquefolius and the body weights were determined.

In a further data set the test system is lean mice. Nature of the data set: Intraperitoneal glucose tolerance test (IPGTT) in lean mice. It counts as in vivo. The following applies: 20 mg/kg, 12 days. As to the method: (§1) Animals were treated with Panax ginseng berry extract, Panax quinquefolius berry extract, ginsenoside Re, or a polysaccharide fraction from Panax quinquefolius . IPGTT was performed on Day 0 and Day 12. On the days of the test, animals were fasted for 4 hr (starting from 9:00AM) followed by an IP administration of glucose (2 g/kg). Blood glucose levels were determined in tail blood samples at 0 (prior to glucose administration), and 30, 60 and 120 min after glucose administration.

For the next data set, the system named is C57BL/6J ob/ob mice. Nature of the data set: Fasting blood glucose level in ob/ob mice. The data set is classed as in vivo. The following applies: 20 mg/kg daily IP. The text has this: (§2) Male C57BL/6J ob/ob mice and their lean littermates (+/?) were obtained from Jackson Laboratory (Bar Harbor, Me.). In this obese, insulin-resistant mouse model, obesity is due to a mutation in the obese gene that encodes for leptin. […] The heterozygous mice are lean and normoglycemic. It is believed that the development of hyperglycemia in the ob/ob mouse is a consequence of epistatic interaction of the obesity mutation with diabetes-susceptibility genes. Adult animals at 10-18 weeks of age were used. Mice were housed in environmentally controlled conditions with a 12-h light/dark cycle and had free access to standard rodent pellet food, except when fasted before some experiments.
(§3) Animals were treated with Panax ginseng berry extract, Panax quinquefolius berry extract, ginsenoside Re or a polysaccharides fraction from Panax quinquefolius and the fasting blood glucose levels were measured. Fasting blood glucose levels were measured after animals were fasted for 4 hr (starting from 9:00AM), on Day 0 (before treatment), Day 5 (during treatment), and Day 12 (last day of treatment). Blood glucose levels were determined in tail blood samples at 1:00PM using a Glucose Analyzer (Hemocue AB, Angelholm, Sweden).

The test system of another data set is ob/ob mice. Nature of the data set: Intraperitoneal glucose tolerance test (IPGTT) in ob/ob mice. It counts as in vivo. Particulars: 20 mg/kg, 12 days, compared to vehicle-treated ob/ob mice. As to the method: as §1
Data set [9] relates to lean littermates (+/?) of C57BL/6J ob/ob mice. Nature of the data set: Fasting blood glucose level in lean littermates of ob/ob mice. The data set is classed as in vivo. Particulars: after treatment with ginsenoside Re.
Source text: as §2, §3

For `CC(C)=CCC[C@](C)(O[C@@H]1O[C@H](CO)[C@@H](O)[C@H](O)[C@H]1O)[C@H]1CC[C@]2(C)[C@@H]1[C@H](O)C[C@@H]1[C@@]3(C)CC[C@H](O)C(C)(C)[C@@H]3CC[C@]12C` [compound K], the “cytotoxicity of antineoplastic drugs” value in [1] was “increase the cytotoxicity”. In addition, the apoptosis result in the data set on B16-BL6 melanoma cells was “induce apoptosis”.

For the compound `CC(C)=CCC[C@@](C)(O)[C@H]1CC[C@]2(C)[C@@H]1[C@H](O)C[C@@H]1[C@@]3(C)CC[C@H](O)C(C)(C)[C@@H]3[C@@H](O[C@@H]3O[C@H](CO)[C@@H](O)[C@H](O)[C@H]3O[C@@H]3O[C@@H](C)[C@H](O)[C@@H](O)[C@H]3O)C[C@]12C` [20(R) ginsenoside Rg2], the “acetylcholine-evoked secretion of catecholamines” value in data set [2] is on record as “inhibit”.

For the compound `CC(C)=CCC[C@](C)(O[C@@H]1O[C@H](CO[C@@H]2O[C@H](CO)[C@@H](O)[C@H](O)[C@H]2O)[C@@H](O)[C@H](O)[C@H]1O)[C@H]1CC[C@]2(C)[C@@H]1[C@H](O)C[C@@H]1[C@@]3(C)CC[C@H](O[C@@H]4O[C@H](CO)[C@@H](O)[C@H](O)[C@H]4O[C@@H]4O[C@H](CO)[C@@H](O)[C@H](O)[C@H]4O)C(C)(C)[C@@H]3CC[C@]12C` [Rb1], the absorption after ingestion result in [3] is listed as “poorly absorbed”. In data set [4], the “metabolism by intestinal flora” value is “hydrolyzed to compound K”.

Take `CC(C)=CCC[C@](C)(O[C@@H]1O[C@H](CO)[C@@H](O)[C@H](O)[C@H]1O)[C@H]1CC[C@]2(C)[C@@H]1[C@H](O)C[C@@H]1[C@@]3(C)CC[C@H](O)C(C)(C)[C@@H]3[C@@H](O[C@@H]3O[C@H](CO)[C@@H](O)[C@H](O)[C@H]3O)C[C@]12C` [Rg1]: the “ligand of the nuclear glucocorticoid receptor” value in data set [5] is “functional ligand”. Besides, the absorption after ingestion entry in data set [3] is on record as “poorly absorbed”.

As for `CC(C)=CCC[C@](C)(O[C@@H]1O[C@H](CO[C@@H]2OC[C@H](O)[C@H](O)[C@H]2O)[C@@H](O)[C@H](O)[C@H]1O)[C@H]1CC[C@]2(C)[C@@H]1[C@H](O)C[C@@H]1[C@@]3(C)CC[C@H](O[C@@H]4O[C@H](CO)[C@@H](O)[C@H](O)[C@H]4O[C@@H]4O[C@H](CO)[C@@H](O)[C@H](O)[C@H]4O)C(C)(C)[C@@H]3CC[C@]12C` [ginsenoside Rb2], the blood glucose levels result in data set [6] is given as “significant decrease”. Besides, the “ATP levels in hepatic tissue” value in [7] is “increased ATP levels”. For the same compound, the “albumin mRNA in the liver” value in the data set with albumin mRNA is “increased albumin mRNA”.

For `CC(C)=CCCC(C)(O)C1CCC2(C)C1C(O)CC1C3(C)CCC(O)C(C)(C)C3C(OC3OC(CO)C(O)C(O)C3OC3OC(C)C(O)C(O)C3O)CC12C` [20(S) ginsenoside Rg2], in data set [2], the “acetylcholine-evoked secretion of catecholamines” value was “inhibit” and the “inhibitory effect compared with the other C-20 isomer” value was “greater inhibitory effect”.

Regarding `CC(C)=CCC[C@](C)(O[C@@H]1O[C@H](CO)[C@@H](O)[C@H](O)[C@H]1O)[C@H]1CC[C@]2(C)[C@@H]1[C@H](O)C[C@@H]1[C@@]3(C)CC[C@H](O)C(C)(C)[C@@H]3[C@@H](O[C@@H]3O[C@H](CO)[C@@H](O)[C@H](O)[C@H]3O[C@@H]3O[C@@H](C)[C@H](O)[C@@H](O)[C@H]3O)C[C@]12C` [ginsenoside Re], the body weight in [8] (20 mg/kg group, Day 0) came out at 53.1 ± 1.4 g; in data set [8] (20 mg/kg, Day 5) it was 52.9 ± 1.5 g; in data set [8] (20 mg/kg, Day 12) it was 54.7 ± 1.7 g. Further, in the data set with lean mice, the “glucose tolerance, IPGTT” value is “not statistically affected”. Moreover, the fasting blood glucose amounted to 188 ± 9.2 mg/dL in the data set with C57BL/6J ob/ob mice (Day 5, 4 hr fast) and 180 ± 10.8 mg/dL with C57BL/6J ob/ob mice (Day 12, 4 hr fast). The “blood glucose levels at 60 min and 120 min following glucose administration, IPGTT” value in the data set with ob/ob mice was “significantly decreased”. In addition, the “change of fasting blood glucose” value in data set [9] is recorded as “did not change sizably”.

Source of the values: US20020136785A1, “Ginseng berry extracts and pharmaceutical compositions from ginseng berry for the treatment of type 2 diabetes and obesity” (priority 2000, published 2002).
